This note sets out measurements from US20240124410A1, “SMALL MOLECULES AND THEIR USE AS MALT1 INHIBITORS” (University of Pittsburgh - Of the Commonwealth System of …, priority 2021, published 2024).

Structures are written as SMILES.

The target in one test is T1, DRD1 (Homo sapiens, UniProt P21728).
T1 construct: Eurofins
Description: Eurofins SAFETYscan 78-target panel, off-target effects, DRD1. Format: biochemical. The conditions noted are these: antagonist / blocker / inhibitor mode. How it is done: (§1) FIG. 9. Table summarizing the Eurofins analysis of potential off-target effects of M1i-124. […] values above 10 μM are generally considered to be acceptable. FIG. 10. Representative hematoxylin and eosin (H&E) staining of organ sections (lung, heart, kidney, liver and adrenal) from control and M1i-124 treated mice described in FIG. 6.
(§2) Studies were performed using the services of Touchstone Biosciences and Eurofins Pharma Discovery Services. […] All blood samples (30-50 ul per sample) were taken via tail vein at 5, 15, and 30 minutes, and 1, 2, 4, 6, 8, and 24 hours after dosing. Blood samples are collected in Greiner MiniCollect K2 EDTA tubes, placed on ice, and within 30 minutes, centrifuged at 15,000 g for 5 minutes to obtain plasma samples. All plasma samples are stored at −70° C. until analysis. Plasma samples were prepared for analysis by LC-MS/MS, and key PK parameters, including terminal half-life (t 112), initial plasma concentration (C0), area under the plasma concentration vs. time curve (AUC), volume of distribution at steady-state (Vss), total plasma clearance (CLp), and mean residence time (MRT), were measured.
(§3) Assay details are available through Eurofins.

The next test deals with T2, KvLQT1/minK (Homo sapiens, UniProt P15382+P51787).
T2 construct: Eurofins
Description: Eurofins SAFETYscan 78-target panel, off-target effects, KvLQT1/minK. Format: biochemical. The conditions noted are these: antagonist / blocker / inhibitor mode. As to the method:
as §1, §2, §3

The next test deals with T3, ADRB1 (Homo sapiens, UniProt P08588).
T3 construct: Eurofins
T3 sequence (P08588 whole entry): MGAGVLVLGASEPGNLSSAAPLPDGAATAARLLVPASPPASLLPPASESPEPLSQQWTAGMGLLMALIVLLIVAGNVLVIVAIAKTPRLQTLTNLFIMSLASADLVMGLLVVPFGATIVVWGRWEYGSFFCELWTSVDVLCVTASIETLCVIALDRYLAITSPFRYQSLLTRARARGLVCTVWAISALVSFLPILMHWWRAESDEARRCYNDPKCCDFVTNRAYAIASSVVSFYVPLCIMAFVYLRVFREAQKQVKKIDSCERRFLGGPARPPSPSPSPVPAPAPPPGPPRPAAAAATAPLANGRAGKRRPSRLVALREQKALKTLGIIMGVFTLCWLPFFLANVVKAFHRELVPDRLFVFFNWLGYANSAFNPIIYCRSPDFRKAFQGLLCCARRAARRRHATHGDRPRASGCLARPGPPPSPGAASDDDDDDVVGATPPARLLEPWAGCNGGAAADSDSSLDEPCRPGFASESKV
Description: Eurofins SAFETYscan 78-target panel, off-target effects, ADRB1. Format: biochemical. The settings on record: antagonist / blocker / inhibitor mode. How it is done:
as §1, §2, §3

For test [1], the system named is IL-6 and IL-10 secretion in TMD8 cells. Description: IL-6 and IL-10 secretion by TMD8 cells (ELISA). The class given is cell-based, human. How it is done:
Expression of cytokines from cell culture supernatants was measured 24h after treatment with 0, 0.01, 0.03, 0.1, 0.3, 1, or 3 uM of compounds using the following ELISA kits according to the manufacturer's instructions: Human IL-2 ELISA (BioLegend Cat #431804), Human IL-6 ELISA (BioLegend Cat #430504), and Human IL-10 ELISA (BioLegend Cat #430604).
On the technique in general: ELISA stands for enzyme-linked immunosorbent assay.

Another test concerns the target T4, BCL10-MALT1 interaction (Homo sapiens, UniProt Q9UDY8).
T4 sequence (Q9UDY8 1-824): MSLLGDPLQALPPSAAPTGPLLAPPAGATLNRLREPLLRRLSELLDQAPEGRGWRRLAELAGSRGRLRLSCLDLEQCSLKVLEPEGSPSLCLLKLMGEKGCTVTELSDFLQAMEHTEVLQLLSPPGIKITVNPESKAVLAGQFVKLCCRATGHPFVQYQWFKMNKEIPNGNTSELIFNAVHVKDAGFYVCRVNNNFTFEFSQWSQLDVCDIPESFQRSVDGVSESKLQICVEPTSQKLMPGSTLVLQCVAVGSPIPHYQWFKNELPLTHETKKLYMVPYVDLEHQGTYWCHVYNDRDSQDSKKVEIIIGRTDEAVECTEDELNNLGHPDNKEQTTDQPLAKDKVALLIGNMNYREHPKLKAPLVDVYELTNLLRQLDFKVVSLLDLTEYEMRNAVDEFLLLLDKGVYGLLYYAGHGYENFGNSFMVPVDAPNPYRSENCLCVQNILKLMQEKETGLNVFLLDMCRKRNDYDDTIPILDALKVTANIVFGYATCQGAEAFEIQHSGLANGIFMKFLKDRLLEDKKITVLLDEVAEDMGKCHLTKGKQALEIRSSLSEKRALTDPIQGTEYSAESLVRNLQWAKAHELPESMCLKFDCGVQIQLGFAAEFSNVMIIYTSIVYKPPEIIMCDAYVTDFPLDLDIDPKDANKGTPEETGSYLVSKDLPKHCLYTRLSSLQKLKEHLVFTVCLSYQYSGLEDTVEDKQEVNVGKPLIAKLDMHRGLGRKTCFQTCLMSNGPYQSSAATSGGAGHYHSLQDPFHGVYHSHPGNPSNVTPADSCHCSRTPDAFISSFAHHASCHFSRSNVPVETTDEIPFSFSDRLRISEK
Description: ELISA-based protein-protein interaction assay. The class given is binding. Further details: GST-tagged recombinant human full-length MALT1 protein (Novus Biologicals Cat #H00010892-P01); purchased Novus Biologicals H00010892-P01. How it is done: On a high-binding 96-well ELISA microplate (Greiner Cat #655061), 100 ng of His-tagged recombinant human full-length Bcl10 protein (ProteinTech Cat #Ag12162) in 100 ul PBS was allowed to adhere overnight in 4° C. The plate was blocked with 5% BSA in PBS for 1 hour at room temperature. After washing twice with PBS-T, a mixture of 100 ng of GST-tagged recombinant human full-length MALT1 protein (Novus Biologicals Cat #H00010892-P01), +/−compound that was preincubated for 1 hour in 100 ul PBS, was added to the plate for 1 hour at room temperature. After washing three times with PBS-T, anti-MALT1 antibody in 5% BSA in PBS was added at 1:1000 dilution for 1 hour at room temperature. After washing three times with PBS-T, HRP-conjugated secondary antibody in 5% BSA in PBS was added at 1:5000 dilution for 1 hour at room temperature. After washing three times with PBS-T, 100 ul of TMB was added for 5 minutes, and 100 ul of 2 M sulfuric acid was added to stop the reaction. The plate was read at 450 nm using a spectrophotometer (Molecular Devices SpectraMax i3).

Test [2] has as its system T cell receptor (TCR)-induced phosphorylation of ERK. Description: Phosphorylation of ERK in Jurkat T cells (Western blot). The class given is cell-based. The conditions noted are these: 20 hours pretreatment, anti-CD3/CD28 for 0-20 minutes. How it is done: The DLBCL cell lines, OCI-Ly1, OCI-Ly3, and OCI-Ly7, were provided by Dr. Mark Minden (University Health Network, Toronto, Ontario, Canada). TMD8 cells were provided by Dr. Louis Staudt (NCI, NIH). OCI-Ly1 and OCI-Ly7 cells were cultured in Iscove's Modified Dulbecco's Medium (IMDM) supplemented with 10% FBS. OCI-Ly3 cells were cultured in IMDM supplemented with 20% FBS. TMD8 and Jurkat T cells were cultured in RPMI1640 medium with 10% FBS. HEK293T cells were cultured in DMEM medium with 10% FBS. All media were supplemented with 100 U/ml penicillin streptomycin. Stimulation of Jurkat cells was conducted by adding 5 ng/ml of phorbol 12-myristatel3 acetate (PMA)(Sigma-Aldrich) and 1μM ionomycin (Calbiochem), or by adding 5-10 μL/mL of ImmunoCult Human CD3/CD28 ([…] Technologies).
For orientation: A western blot detects proteins with antibodies after separation by electrophoresis.

T1 sequence (P21728 whole entry): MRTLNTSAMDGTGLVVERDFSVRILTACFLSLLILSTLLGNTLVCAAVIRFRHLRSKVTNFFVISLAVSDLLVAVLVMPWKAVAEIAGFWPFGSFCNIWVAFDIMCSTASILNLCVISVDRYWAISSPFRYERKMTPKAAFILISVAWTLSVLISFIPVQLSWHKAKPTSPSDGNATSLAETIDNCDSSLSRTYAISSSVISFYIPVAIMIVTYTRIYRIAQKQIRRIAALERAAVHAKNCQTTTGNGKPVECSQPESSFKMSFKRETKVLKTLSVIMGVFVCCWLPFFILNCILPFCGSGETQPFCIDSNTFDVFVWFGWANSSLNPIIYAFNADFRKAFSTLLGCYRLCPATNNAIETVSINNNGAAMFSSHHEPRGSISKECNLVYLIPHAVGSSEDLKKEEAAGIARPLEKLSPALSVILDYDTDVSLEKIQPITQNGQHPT

`O=S(=O)(NCc1ccc2c(c1)OCO2)c1ccc(Cc2ccc(S(=O)(=O)NCc3ccc4c(c3)OCO4)cc2)cc1` [M1i-124]: the IC50 (as a rule, the concentration that gives 50% inhibition) against DRD1 was 1900 nM; against KvLQT1/minK, 1800 nM; at ADRB1, 800 nM.
Turning to `COc1ccc(CNS(=O)(=O)c2ccc(Cc3ccc(S(=O)(=O)NCc4ccc(OC)cc4)cc3)cc2)cc1` [M1i-124d1], in test [1], the IL-6 secretion result is “inhibit IL-6 and IL-10 secretion in a concentration-dependent manner”; the IL-10 secretion result was “inhibit IL-6 and IL-10 secretion in a concentration-dependent manner”. In addition, the “ELISA IC50 compared with parent compound M1i-124” value at BCL10-MALT1 interaction is recorded as “lower IC50 as compared to parent compound”. For the same compound, the “Disruption of the BCL10-MALT1 interaction by ELISA in the presence of tween” value on BCL10-MALT1 interaction (0.005% tween) is recorded as “retain the ability to disrupt the BCL10-MALT1 interaction”. Moreover, in test [2], the “Phosphorylation of ERK (phospho-ERK/total ERK)” value is on record as “Neither M1i-124 (F) or M1i-124d1 (G) inhibits”.
